Reference: PubChem BioAssay AID1963982 (Molecular Pharmacology Branch, DTP, NCI, 2024)

Tested on: 313798-341-R-J2-PDC spheroids, viability
Assay: Anticancer human tumor 313798-341-R-J2-PDC patient-derived cervical squamous cell carcinoma cell line growth inhibition [PI3K]
Details: spheroids with HUVEC and MSC; for IC50: curve of first compound; for viability, T/C: stronger effect = lower value
In short: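 Stroma-containing spheroids: tumor line, pooled-donor HUVEC, hMSC. Treatments: targeted agents with PI3K inhibitors. Dosing: clinically relevant, half-log spacing, 10 microM ceiling without known Cmax. Read-out: cell viability.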
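Note: spheroids exposed to compounds for seven days.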
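Throughout, for viability, T/C: 100% = DMSO vehicle control viability.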

In the case of `Cn1cnc2c(F)c(Nc3ccc(Br)cc3Cl)c(C(=O)NOCCO)cc21` + Cc1nc(NC(=O)N2CCCC2C(N)=O)sc1-c1ccnc(C(C)(C)C(F)(F)F)c1, the IC50 (second compound 0.0316 µM) is reported as over 3 µM, the IC50 (second compound 0.1 µM) is reported as over 3 µM and the IC50 (second compound 0.316 µM) is reported as over 3 µM. It also gave an IC50 (second compound 1 µM) of 2.79 µM, an IC50 (second compound 3.16 µM) of 0.1 µM and an IC50 (second compound 10 µM) of under 0.00949 µM. It also gave a viability, T/C (second compound 0.0316 µM, first compound 0.00949 µM) of 98.8%, a viability, T/C (second compound 0.0316 µM, first compound 0.03 µM) of 95.7% and a viability, T/C (second compound 0.0316 µM, first compound 0.0949 µM) of 95.7%. The viability, T/C (second compound 0.0316 µM, first compound 0.3 µM) was 98.7%, the viability, T/C (second compound 0.0316 µM, first compound 0.949 µM) was 98.6% and the viability, T/C (second compound 0.0316 µM, first compound 3 µM) was 81.5%. For the same compound, the viability, T/C (second compound 0.1 µM, first compound 0.00949 µM) was 105%, the viability, T/C (second compound 0.1 µM, first compound 0.03 µM) was 102% and the viability, T/C (second compound 0.1 µM, first compound 0.0949 µM) was 98%. For the same compound, the viability, T/C (second compound 0.1 µM, first compound 0.3 µM) was 107%, the viability, T/C (second compound 0.1 µM, first compound 0.949 µM) was 99.4% and the viability, T/C (second compound 0.1 µM, first compound 3 µM) was 83.7%. The viability, T/C (second compound 0.316 µM, first compound 0.00949 µM) was 109%, the viability, T/C (second compound 0.316 µM, first compound 0.03 µM) was 99.7% and the viability, T/C (second compound 0.316 µM, first compound 0.0949 µM) was 98.6%. The viability, T/C (second compound 0.316 µM, first compound 0.3 µM) was 100%, the viability, T/C (second compound 0.316 µM, first compound 0.949 µM) was 92.6% and the viability, T/C (second compound 0.316 µM, first compound 3 µM) was 70.9%. The viability, T/C (second compound 1 µM, first compound 0.00949 µM) was 84%, the viability, T/C (second compound 1 µM, first compound 0.03 µM) was 79.1% and the viability, T/C (second compound 1 µM, first compound 0.0949 µM) was 71.4%. For the same compound, the viability, T/C (second compound 1 µM, first compound 0.3 µM) was 76.5%, the viability, T/C (second compound 1 µM, first compound 0.949 µM) was 68.7% and the viability, T/C (second compound 1 µM, first compound 3 µM) was 48.4%. The viability, T/C (second compound 3.16 µM, first compound 0.00949 µM) was 55.3%, the viability, T/C (second compound 3.16 µM, first compound 0.03 µM) was 50.3% and the viability, T/C (second compound 3.16 µM, first compound 0.0949 µM) was 50.7%. The viability, T/C (second compound 3.16 µM, first compound 0.3 µM) was 47.5%, the viability, T/C (second compound 3.16 µM, first compound 0.949 µM) was 39.9% and the viability, T/C (second compound 3.16 µM, first compound 3 µM) was 32.8%. The viability, T/C (second compound 10 µM, first compound 0.00949 µM) was 32.2%, the viability, T/C (second compound 10 µM, first compound 0.03 µM) was 25.8% and the viability, T/C (second compound 10 µM, first compound 0.0949 µM) was 23%. The viability, T/C (second compound 10 µM, first compound 0.3 µM) was 24.3%, the viability, T/C (second compound 10 µM, first compound 0.949 µM) was 17.1% and the viability, T/C (second compound 10 µM, first compound 3 µM) was 10.4%.

`CC(Cn1ccc(-c2ccc(C#N)c(Cl)c2)n1)NC(=O)c1cc(C(C)O)[nH]n1` (centres undefined) + Cc1nc(NC(=O)N2CCCC2C(N)=O)sc1-c1ccnc(C(C)(C)C(F)(F)F)c1 gave an IC50 (second compound 0.0316 µM) of over 10 µM, an IC50 (second compound 0.1 µM) of over 10 µM and an IC50 (second compound 0.316 µM) of over 10 µM. For the same compound, the IC50 (second compound 1 µM) was over 10 µM, the IC50 (second compound 3.16 µM) was over 10 µM and the IC50 (second compound 10 µM) was under 0.0316 µM. The viability, T/C (second compound 0.0316 µM, first compound 0.0316 µM) was 103%, the viability, T/C (second compound 0.0316 µM, first compound 0.1 µM) was 93.9% and the viability, T/C (second compound 0.0316 µM, first compound 0.316 µM) was 97.6%. It also gave a viability, T/C (second compound 0.0316 µM, first compound 1 µM) of 99.9%, a viability, T/C (second compound 0.0316 µM, first compound 3.16 µM) of 111% and a viability, T/C (second compound 0.0316 µM, first compound 10 µM) of 92.1%. It also gave a viability, T/C (second compound 0.1 µM, first compound 0.0316 µM) of 114%, a viability, T/C (second compound 0.1 µM, first compound 0.1 µM) of 109% and a viability, T/C (second compound 0.1 µM, first compound 0.316 µM) of 103%. The viability, T/C (second compound 0.1 µM, first compound 1 µM) was 113%, the viability, T/C (second compound 0.1 µM, first compound 3.16 µM) was 114% and the viability, T/C (second compound 0.1 µM, first compound 10 µM) was 103%. For the same compound, the viability, T/C (second compound 0.316 µM, first compound 0.0316 µM) was 114%, the viability, T/C (second compound 0.316 µM, first compound 0.1 µM) was 104% and the viability, T/C (second compound 0.316 µM, first compound 0.316 µM) was 118%. It also gave a viability, T/C (second compound 0.316 µM, first compound 1 µM) of 114%, a viability, T/C (second compound 0.316 µM, first compound 3.16 µM) of 108% and a viability, T/C (second compound 0.316 µM, first compound 10 µM) of 98.4%. For the same compound, the viability, T/C (second compound 1 µM, first compound 0.0316 µM) was 96.7%, the viability, T/C (second compound 1 µM, first compound 0.1 µM) was 93.6% and the viability, T/C (second compound 1 µM, first compound 0.316 µM) was 94.8%. For the same compound, the viability, T/C (second compound 1 µM, first compound 1 µM) was 85.2%, the viability, T/C (second compound 1 µM, first compound 3.16 µM) was 97.6% and the viability, T/C (second compound 1 µM, first compound 10 µM) was 84.1%. It also gave a viability, T/C (second compound 3.16 µM, first compound 0.0316 µM) of 67.5%, a viability, T/C (second compound 3.16 µM, first compound 0.1 µM) of 57.3% and a viability, T/C (second compound 3.16 µM, first compound 0.316 µM) of 66.1%. It also gave a viability, T/C (second compound 3.16 µM, first compound 1 µM) of 61.7%, a viability, T/C (second compound 3.16 µM, first compound 3.16 µM) of 59.1% and a viability, T/C (second compound 3.16 µM, first compound 10 µM) of 52.5%. For the same compound, the viability, T/C (second compound 10 µM, first compound 0.0316 µM) was 37.2%, the viability, T/C (second compound 10 µM, first compound 0.1 µM) was 33.2% and the viability, T/C (second compound 10 µM, first compound 0.316 µM) was 39.3%. It also gave a viability, T/C (second compound 10 µM, first compound 1 µM) of 36.3%, a viability, T/C (second compound 10 µM, first compound 3.16 µM) of 37.4% and a viability, T/C (second compound 10 µM, first compound 10 µM) of 30.9%.
